Results on three compounds are retold here after ChEMBL document CHEMBL4229381, “New cytokinin derivatives possess UVA and UVB photoprotective effect on human skin cells and prevent oxidative stress” (Eur J Med Chem, 2018).

Data set [1] relates to HaCaT. Description: Cytotoxicity in human HaCaT cells assessed as reduction in cell viability at 50 uM after 24 hrs by resazurin dye-based fluorescence assay relative to control. (In general: Resazurin is reduced to fluorescent resorufin, in cell work by metabolically active cells.)
Data set [2] is described as follows: Stability of the compound in pH 6 solution at 10^-4 M after 1 hr by HPLC analysis. Format: physicochemical. As to conditions: read-out: Stability.
Data set [3] in a line: Stability of the compound in pH 5 solution at 10^-4 M after 1 hr by HPLC analysis. The following applies: read-out: Stability. Format: physicochemical.
Data set [4] can be described thus: Stability of the compound in pH 4 solution at 10^-4 M after 1 hr by HPLC analysis. The following applies: read-out: Stability. Format: physicochemical.
Data set [5] can be described thus: Stability of the compound in pH 3 solution at 10^-4 M after 1 hr by HPLC analysis. It is filed as physicochemical. The following applies: read-out: Stability.
Data set [6] in a line: Stability of the compound in pH 6 solution at 10^-4 M after 24 hrs by HPLC analysis. The following applies: read-out: Stability. It is filed as physicochemical.
A short description of data set [7]: Stability of the compound in pH 5 solution at 10^-4 M after 24 hrs by HPLC analysis. Format: physicochemical. As to conditions: read-out: Stability.
Data set [8] in a line: Stability of the compound in pH 4 solution at 10^-4 M after 24 hrs by HPLC analysis. It is filed as physicochemical. The following applies: read-out: Stability.
Data set [9] can be described thus: Stability of the compound in pH 3 solution at 10^-4 M after 24 hrs by HPLC analysis. It is filed as physicochemical. As to conditions: read-out: Stability.
The subject of data set [10] is BJ. Description: Cytotoxicity in human BJ cells assessed as reduction in cell viability at 50 uM after 24 hrs by resazurin dye-based fluorescence assay relative to control.
Data set [11] can be described thus: Cytotoxicity in human NHDF cells assessed as cell viability at 3.9 uM after 24 hrs by neutral red uptake assay relative to control. It is filed as cell-based. The following applies: read-out: Activity.
Data set [12] is described as follows: Cytotoxicity in human NHDF cells assessed as cell viability at 7.8 uM after 24 hrs by neutral red uptake assay relative to control. It is filed as cell-based. As to conditions: read-out: Activity.
Data set [13] in a line: Cytotoxicity in human NHDF cells assessed as cell viability at 15.6 uM after 24 hrs by neutral red uptake assay relative to control. It is filed as cell-based. As to conditions: read-out: Activity.
A short description of data set [14]: Cytotoxicity in human NHDF cells assessed as cell viability at 31.3 uM after 24 hrs by neutral red uptake assay relative to control. Format: cell-based. The following applies: read-out: Activity.
Data set [15] in a line: Cytotoxicity in human NHDF cells assessed as cell viability at 62.5 uM after 24 hrs by neutral red uptake assay relative to control. It is filed as cell-based. As to conditions: read-out: Activity.
A short description of data set [16]: Cytotoxicity in human NHDF cells assessed as cell viability at 125 uM after 24 hrs by neutral red uptake assay relative to control. Format: cell-based. The following applies: read-out: Activity.
Data set [17] can be described thus: Phototoxicity in human NHDF cells assessed as cell viability at 3.9 uM preincubated for 60 mins followed by 5 J/cm2 UVA irradiation and measured after 24 hrs by neutral red uptake assay relative to control. Format: cell-based. As to conditions: read-out: Activity.
The nature of data set [18]: Phototoxicity in human NHDF cells assessed as cell viability at 7.8 uM preincubated for 60 mins followed by 5 J/cm2 UVA irradiation and measured after 24 hrs by neutral red uptake assay relative to control. Format: cell-based. The following applies: read-out: Activity.
A short description of data set [19]: Phototoxicity in human NHDF cells assessed as cell viability at 15.6 uM preincubated for 60 mins followed by 5 J/cm2 UVA irradiation and measured after 24 hrs by neutral red uptake assay relative to control. It is filed as cell-based. As to conditions: read-out: Activity.
Data set [20] can be described thus: Phototoxicity in human NHDF cells assessed as cell viability at 31.3 uM preincubated for 60 mins followed by 5 J/cm2 UVA irradiation and measured after 24 hrs by neutral red uptake assay relative to control. It is filed as cell-based. As to conditions: read-out: Activity.
A short description of data set [21]: Phototoxicity in human NHDF cells assessed as cell viability at 62.5 uM preincubated for 60 mins followed by 5 J/cm2 UVA irradiation and measured after 24 hrs by neutral red uptake assay relative to control. Format: cell-based. The following applies: read-out: Activity.
The nature of data set [22]: Phototoxicity in human NHDF cells assessed as cell viability at 125 uM preincubated for 60 mins followed by 5 J/cm2 UVA irradiation and measured after 24 hrs by neutral red uptake assay relative to control. It is filed as cell-based. As to conditions: read-out: Activity.
The nature of data set [23]: Cytotoxicity in human HaCaT cells assessed as cell viability at 3.9 uM after 24 hrs by neutral red uptake assay relative to control. It is filed as cell-based. As to conditions: read-out: Activity.
The nature of data set [24]: Cytotoxicity in human HaCaT cells assessed as cell viability at 7.8 uM after 24 hrs by neutral red uptake assay relative to control. Format: cell-based. The following applies: read-out: Activity.
The nature of data set [25]: Cytotoxicity in human HaCaT cells assessed as cell viability at 15.6 uM after 24 hrs by neutral red uptake assay relative to control. Format: cell-based. As to conditions: read-out: Activity.
Data set [26] is described as follows: Cytotoxicity in human HaCaT cells assessed as cell viability at 31.3 uM after 24 hrs by neutral red uptake assay relative to control. As to conditions: read-out: Activity. It is filed as cell-based.
A short description of data set [27]: Cytotoxicity in human HaCaT cells assessed as cell viability at 62.5 uM after 24 hrs by neutral red uptake assay relative to control. Format: cell-based. The following applies: read-out: Activity.
Data set [28] is described as follows: Cytotoxicity in human HaCaT cells assessed as cell viability at 125 uM after 24 hrs by neutral red uptake assay relative to control. Format: cell-based. As to conditions: read-out: Activity.
Data set [29] can be described thus: Phototoxicity in human HaCaT cells assessed as cell viability at 3.9 uM preincubated for 60 mins followed by 7.5 J/cm2 UVA irradiation and measured after 24 hrs by neutral red uptake assay relative to control. Format: cell-based. As to conditions: read-out: Activity.
Data set [30] can be described thus: Phototoxicity in human HaCaT cells assessed as cell viability at 7.8 uM preincubated for 60 mins followed by 7.5 J/cm2 UVA irradiation and measured after 24 hrs by neutral red uptake assay relative to control. Format: cell-based. As to conditions: read-out: Activity.
A short description of data set [31]: Phototoxicity in human HaCaT cells assessed as cell viability at 15.6 uM preincubated for 60 mins followed by 7.5 J/cm2 UVA irradiation and measured after 24 hrs by neutral red uptake assay relative to control. Format: cell-based. The following applies: read-out: Activity.
Data set [32] in a line: Phototoxicity in human HaCaT cells assessed as cell viability at 31.3 uM preincubated for 60 mins followed by 7.5 J/cm2 UVA irradiation and measured after 24 hrs by neutral red uptake assay relative to control. The following applies: read-out: Activity. It is filed as cell-based.
A short description of data set [33]: Phototoxicity in human HaCaT cells assessed as cell viability at 62.5 uM preincubated for 60 mins followed by 7.5 J/cm2 UVA irradiation and measured after 24 hrs by neutral red uptake assay relative to control. Format: cell-based. The following applies: read-out: Activity.
Data set [34] is described as follows: Phototoxicity in human HaCaT cells assessed as cell viability at 125 uM preincubated for 60 mins followed by 7.5 J/cm2 UVA irradiation and measured after 24 hrs by neutral red uptake assay relative to control. Format: cell-based. The following applies: read-out: Activity.
The subject of data set [35] is HaCaT. Description: Cytoprotection against phototoxicity in human HaCaT cells assessed as increase in cell viability at 3.9 uM preincubated for 60 mins followed by 10 J/cm2 UVA irradiation and measured after 24 hrs by neutral red uptake assay. Format: functional, cell-based.
Data set [36] is described as follows: Antioxidant activity assessed as trolox equivalent of AAPH-induced radical scavenging activity at 1 uM pretreated for 15 mins followed by […] challenge measured every 3 mins over 90 mins by ORAC-FL assay. It is filed as functional.
Data set [37] concerns Nicotiana tabacum. Description: Growth promoting activity in tobacco callus assessed as callus weight at 10^-5 mol/L after 4 weeks relative to control. It is filed as functional.
Data set [38] concerns Amaranthus caudatus. The data set can be described thus: Growth promoting activity in Amaranthus caudatus var. atropurpurea seeds by measuring betacyanin at 10^-4 mol/L after 48 hrs relative to control. Format: functional.
The test system of data set [39] is Triticum aestivum. The data set can be described thus: Anti-senescent activity in leaf of Triticum aestivum cv. Hereward seedlings by measuring chlorophyll retention at 10^-4 mol/L after 4 days relative to control. It is filed as functional.
For data set [40], the system named is Caenorhabditis elegans. Description: Protection against juglone-induced oxidative stress in wild type Caenorhabditis elegans N2 at 100 uM preincubated for 3 days followed by juglone addition and measured after 4 hrs by inverted microscopic analysis. Format: functional, organism-based.
The test system of data set [41] is Caenorhabditis elegans. Description: Protection against juglone-induced oxidative stress in Caenorhabditis elegans BA17 (fem-1) at 100 uM preincubated for 3 days followed by juglone addition measured every hour for 12 ro 14 hrs by inverted microscopic analysis. It is filed as functional, organism-based.
Data set [42] in a line: Stability of the compound in pH 7 solution at 10^-4 M after 1 hr by HPLC analysis. Format: physicochemical. As to conditions: read-out: Stability.
A short description of data set [43]: Stability of the compound in pH 7 solution at 10^-4 M after 24 hrs by HPLC analysis. Format: physicochemical. The following applies: read-out: Stability.
Data set [44] deals with Amaranthus caudatus. The data set can be described thus: Growth promoting activity in Amaranthus caudatus var. atropurpurea seeds by measuring betacyanin at 10^-5 mol/L after 48 hrs relative to control. It is filed as functional.

The source made the active and inactive calls. The rule behind the calls is not given here.

As to `Clc1nc(NCc2ccco2)c2ncn(C3CCCO3)c2n1` (stereo not drawn), the Activity was under 10% in data set [1]; under 10% in [10]; under 0.05 equiv in data set [36]; 112% in [37]; 88% in data set [38]; 75% in data set [39]. Besides, the remaining at 1 h, 100 µM was 100% in data set [2], 100% in data set [3], 100% in [4] and 98.8% in [5]. Also, the remaining at 24 h, 100 µM came out at 100% in data set [6], 92.9% in [7], 51.7% in [8] and 0.9% in [9]. Further, the viability at 24 h, 3.9 µM in data set [11] was determined as 100%; in data set [17], 100%; in [23] it was 107%; in [29], 116%. Moreover, the viability at 24 h, 7.8 µM worked out at 104% in data set [12], 102% in data set [18], 107% in data set [24] and 120% in [30]. In addition, the viability at 24 h, 15.6 µM in data set [13] is 104%; in [19], 103%; in data set [25], 109%; in [31], 120%. Further, the viability at 24 h, 31.3 µM came to 105% in [14], 103% in data set [20], 109% in [26] and 119% in [32]. Also, the viability at 24 h, 62.5 µM in data set [15] was 106%; in data set [21], 103%; in data set [27] it was 110%; in [33], 116%. Further, the viability at 24 h, 125 µM is 101% in data set [16], 97% in data set [22], 105% in data set [28] and 104% in data set [34]. The result in [35], in data set [40] and in data set [41] was Active.
With `c1nc(NCC2CCCO2)c2ncn(C3CCCO3)c2n1` (stereo not drawn), the remaining at 1 h, 100 µM in [42] is 100%; in data set [2] it was 100%; in data set [3] it was 100%; in [4], 100%; in [5], 94.3%. Moreover, the remaining at 24 h, 100 µM in data set [43] turned out to be 100%; in data set [6], 100%; in [7], 92.6%; in data set [8], 44.3%; in [9] it was 0.4%. For the same compound, the Activity is under 0.05 equiv in data set [36], 100% in data set [37], 38% in data set [38] and 116% in data set [39].
In the case of `c1csc(CNc2[nH]cnc3ncnc2-3)c1`, the values for the Activity in [37], in data set [44] and in [39] were 102%, 95% and 60%, respectively.
